Legend:
Format in all cases: functional
[1] = test system: Human alphaherpesvirus 1; test: compound was tested for antiherpes activity against HSV-1(Schooler) in tissue culture by plaque reduction assay; conditions: read-out: ID50 (the source's name)
[2] = test system: Human betaherpesvirus 5; test: compound was tested for antiherpes activity against HCMV(AD 169) in tissue culture by plaque reduction assay; conditions: read-out: ID50 (the source's name)
[3] = test system: Human alphaherpesvirus 2; test: compound was tested for antiherpes activity against HSV-2(186) in tissue culture by plaque reduction assay; conditions: read-out: ID50 (the source's name)
[4] = test system: Human alphaherpesvirus 3; test: compound was tested for antiherpes activity against VZV(Ellen) in tissue culture by plaque reduction assay; conditions: read-out: ID50 (the source's name)
[5] = test system: Murid betaherpesvirus 1; test: compound was tested for antiherpes activity against MCMV(Smith) in tissue culture by plaque reduction assay; conditions: read-out: ID50 (the source's name)
[6] = test system: Mus musculus; test: Mean day of death for total no. of dead mouse at 25 mg/kg/day dosep<0.05
[7] = test system: Mus musculus; test: oral efficacy in a mouse cytomegalovirus infection at 25 mg/kg/day dose; Value expressed as survivors/total tested = 1/10
[8] = test system: Mus musculus; test: Subcutaneous efficacy in a mouse cytomegalovirus infection at 100 mg/kg/day dose; Value expressed as survivors/total tested = 10/10
[9] = test system: Mus musculus; test: Subcutaneous efficacy in a mouse cytomegalovirus infection at 12.5 mg/kg/day dose; Value expressed as survivors/total tested = 7/10
[10] = test system: Mus musculus; test: oral efficacy in a mouse cytomegalovirus infection at 50 mg/kg/day dose; Value expressed as survivors/total tested = 5/10
[11] = test system: Mus musculus; test: Mean day of death for total no. of dead mouse at 50 mg/kg/day dose
[12] = test system: Mus musculus; test: Subcutaneous efficacy in a mouse cytomegalovirus infection at 25 mg/kg/day dose; Value expressed as survivors/total tested = 10/10
[13] = test system: Mus musculus; test: Mean day of death for total no. of dead mouse at 12.5 mg/kg/day dose
[14] = test system: Mus musculus; test: oral efficacy in a mouse cytomegalovirus infection at 12.5 mg/kg/day dose; Value expressed as survivors/total tested = 1/10
[15] = test system: Mus musculus; test: Subcutaneous efficacy in a mouse cytomegalovirus infection at 50 mg/kg/day dose; Value expressed as survivors/total tested = 10/10
[16] = test system: Mus musculus; test: Mean day of death for total no. of dead mouse at 12.5 mg/kg/day dosep<0.05
[17] = test system: Mus musculus; test: Subcutaneous efficacy in a mouse cytomegalovirus infection at 25 mg/kg/day dose; Value expressed as survivors/total tested = 9/10
[18] = test system: Mus musculus; test: subcutaneous efficacy of compound in a lethal MCMV infection on mouse; conditions: sc, read-out: PD50
[19] = test system: Mus musculus; test: Subcutaneous efficacy in a mouse cytomegalovirus infection at 12.5 mg/kg/day dose; Value expressed as survivors/total tested = 5/10
[20] = test system: Mus musculus; test: Mean day of death for total no. of dead mouse at 25 mg/kg/day dose
[21] = test system: Mus musculus; test: Subcutaneous efficacy in a mouse cytomegalovirus infection at 50 mg/kg/day; Value expressed as survivors/total tested = 9/10
[22] = test system: Mus musculus; test: Subcutaneous efficacy in a mouse cytomegalovirus infection at 12.5 mg/kg/day dose; Value expressed as survivors/total tested = 4/10
[23] = test system: Mus musculus; test: oral efficacy in a mouse cytomegalovirus infection at 100 mg/kg/day dose; Value expressed as survivors/total tested = 10/10
[24] = test system: Mus musculus; test: Subcutaneous efficacy in a mouse cytomegalovirus infection at 6.3 mg/kg/day dose; Value expressed as survivors/total tested = 4/10
[25] = test system: Mus musculus; test: oral efficacy in a mouse cytomegalovirus infection at 50 mg/kg/day dose; Value expressed as survivors/total tested = 6/10
[26] = test system: Mus musculus; test: oral efficacy in a mouse cytomegalovirus infection at 25 mg/kg/day dose; Value expressed as survivors/total tested = 3/10
[27] = test system: Mus musculus; test: Mean day of death for total no. of dead mouse at 6.3 mg/kg/day dose

## Nc1nc(O)c2ncn(C3CC(CO)C3CO)c2n1 (stereo unspecified)
[1]
  IC50: 80 nM
[2]
  IC50: 4000 nM
[3]
  IC50: 40 nM
[4]
  IC50: 200 nM
[5]
  IC50: 2000 nM

## Nc1ncnc2c1ncn2C1C[C@H](CO)C1CO (stereo partly specified)
[1]
  IC50: > 400000 nM
[2]
  IC50: > 400000 nM
[3]
  IC50: > 400000 nM
[4]
  IC50: > 400000 nM

## Nc1nc2c(ncn2COC(CO)CO)c(=O)[nH]1 [GANCICLOVIR]
[1]
  IC50: 40 nM
[6]
  Mean day of death for total dead: 4.8
[2]
  IC50: 2000 nM
[7]
  Survivors alive/total: 1
[8]
  Survivors alive/total: 10
[3]
  IC50: 40 nM
[9]
  Survivors alive/total: 7
[10]
  Survivors alive/total: 5
[11]
  Mean day of death for total dead: 4.4
[12]
  Survivors alive/total: 10
[13]
  Mean day of death for total dead: 3.6
[14]
  Survivors alive/total: 1
[15]
  Survivors alive/total: 10
[4]
  IC50: 2000 nM
[16]
  Mean day of death for total dead: 5.7
[5]
  IC50: 4000 nM

## Nc1ncnc2c1ncn2C1CC(CO)C1CO (stereo unspecified)
[1]
  IC50: 8000 nM
[2]
  IC50: 800 nM
[3]
  IC50: 8000 nM
[4]
  IC50: 2000 nM
[5]
  IC50: 2000 nM

## Nc1nc(O)c2ncn(C3C[C@@H](CO)[C@@H]3CO)c2n1 (stereo partly specified)
[1]
  IC50: 20 nM
[17]
  Survivors alive/total: 9
[2]
  IC50: 800 nM
[18]
  ED50: 10 mg/kg/day
[8]
  Survivors alive/total: 10
[3]
  IC50: 20 nM
[11]
  Mean day of death for total dead: 6
[13]
  Mean day of death for total dead: 5.4
[19]
  Survivors alive/total: 5
[4]
  IC50: 20 nM
[20]
  Mean day of death for total dead: 4
[21]
  Survivors alive/total: 9
[5]
  IC50: 200 nM

## Nc1ncnc2c1ncn2C1C[C@@H](CO)[C@@H]1CO (stereo partly specified)
[1]
  IC50: 2000 nM
[22]
  Survivors alive/total: 4
[23]
  Survivors alive/total: 10
[2]
  IC50: < 400 nM
[8]
  Survivors alive/total: 10
[3]
  IC50: 2000 nM
[11]
  Mean day of death for total dead: 6.3
[24]
  Survivors alive/total: 4
[12]
  Survivors alive/total: 10
[25]
  Survivors alive/total: 6
[13]
  Mean day of death for total dead: 3.9
[26]
  Survivors alive/total: 3
[14]
  Survivors alive/total: 1
[15]
  Survivors alive/total: 10
[4]
  IC50: 2000 nM
[27]
  Mean day of death for total dead: 4.4
[20]
  Mean day of death for total dead: 3.6
[16]
  Mean day of death for total dead: 8.8
[5]
  IC50: 800 nM

## Nc1nc(O)c2ncn([C@H]3CC(CO)[C@@H]3CO)c2n1 (single isomer, unassigned)
[1]
  IC50: > 377000 nM
[2]
  IC50: > 377000 nM
[3]
  IC50: > 377000 nM
[4]
  IC50: > 377000 nM

— ChEMBL document CHEMBL1125671, “Synthesis and antiviral activity of enantiomeric forms of cyclobutyl nucleoside analogues” (1991)
